From PubChem BioAssay (NCI)
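The compound was tested at five concentrations on cells cultured in 96-well plates, with a 48-hour exposure period. Abbreviation: GI50, concentration required for 50% inhibition of growth. At the TGI there is no net growth.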

Tests used:
Test in all cases: inhibition of tumour cell growth, NCI panel, 48 h
HS 578T breast = test system: HS 578T breast
TK-10 renal = test system: TK-10 renal
OVCAR-8 ovarian = test system: OVCAR-8 ovarian
SK-MEL-5 melanoma = test system: SK-MEL-5 melanoma
ACHN renal = test system: ACHN renal
SF-539 CNS = test system: SF-539 CNS
OVCAR-5 ovarian = test system: OVCAR-5 ovarian
LOX IMVI melanoma = test system: LOX IMVI melanoma
A498 renal = test system: A498 renal
OVCAR-3 ovarian = test system: OVCAR-3 ovarian
RXF 393 renal = test system: RXF 393 renal
NCI-H23 lung = test system: NCI-H23 lung
HCT-15 colon = test system: HCT-15 colon
SW-620 colon = test system: SW-620 colon
SR leukemia = test system: SR leukemia
SK-MEL-2 melanoma = test system: SK-MEL-2 melanoma
786-0 renal = test system: 786-0 renal
COLO 205 colon = test system: COLO 205 colon
NCI/ADR-RES ovarian = test system: NCI/ADR-RES ovarian
EKVX NSCLC = test system: EKVX NSCLC
UACC-62 melanoma = test system: UACC-62 melanoma
HL-60(TB) leukemia = test system: HL-60(TB) leukemia
KM12 colon = test system: KM12 colon
BT-549 breast = test system: BT-549 breast
A549 NSCLC = test system: A549 NSCLC
NCI-H460 lung = test system: NCI-H460 lung
SK-MEL-28 melanoma = test system: SK-MEL-28 melanoma
SNB-75 CNS = test system: SNB-75 CNS
HOP-92 NSCLC = test system: HOP-92 NSCLC
PC-3 prostate = test system: PC-3 prostate
U251 CNS = test system: U251 CNS
MDA-MB-231 breast = test system: MDA-MB-231 breast
M14 melanoma = test system: M14 melanoma
RPMI-8226 leukemia = test system: RPMI-8226 leukemia
HOP-62 NSCLC = test system: HOP-62 NSCLC
SF-268 CNS = test system: SF-268 CNS
UACC-257 melanoma = test system: UACC-257 melanoma
OVCAR-4 ovarian = test system: OVCAR-4 ovarian
NCI-H226 lung = test system: NCI-H226 lung
SK-OV-3 ovarian = test system: SK-OV-3 ovarian
SNB-19 CNS = test system: SNB-19 CNS
MDA-MB-435 = test system: MDA-MB-435
SN12C renal = test system: SN12C renal
HCT-116 colon = test system: HCT-116 colon
MOLT-4 leukemia = test system: MOLT-4 leukemia
SF-295 CNS = test system: SF-295 CNS
MCF7 breast = test system: MCF7 breast
K-562 leukemia = test system: K-562 leukemia
NCI-H522 lung = test system: NCI-H522 lung
DU-145 prostate = test system: DU-145 prostate
CCRF-CEM leukemia = test system: CCRF-CEM leukemia
CAKI-1 renal = test system: CAKI-1 renal
T-47D breast = test system: T-47D breast
HCC-2998 colon = test system: HCC-2998 colon

`Cn1cc(-c2nc(-c3cn(C)c4ncccc34)cs2)c2cc(F)ccc21` was tested, and the GI50 (HS 578T breast) was 5.1 µM, the TGI (HS 578T breast) was > 100 µM and the GI50 (TK-10 renal) was 3.01 µM. For the same compound, the TGI (TK-10 renal) was 38 µM, the GI50 (OVCAR-8 ovarian) was 3.26 µM and the TGI (OVCAR-8 ovarian) was > 100 µM. It also gave a GI50 (SK-MEL-5 melanoma) of 0.847 µM, a TGI (SK-MEL-5 melanoma) of 3.37 µM and a GI50 (ACHN renal) of 2.96 µM. For the same compound, the TGI (ACHN renal) was > 100 µM, the GI50 (SF-539 CNS) was 1.8 µM and the TGI (SF-539 CNS) was 5.28 µM. For the same compound, the GI50 (OVCAR-5 ovarian) was 3.54 µM, the TGI (OVCAR-5 ovarian) was > 100 µM and the GI50 (LOX IMVI melanoma) was 1.15 µM. The TGI (LOX IMVI melanoma) was 5.69 µM, the GI50 (A498 renal) was 1.91 µM and the TGI (A498 renal) was 31.3 µM. It also gave a GI50 (OVCAR-3 ovarian) of 0.379 µM, a TGI (OVCAR-3 ovarian) of 2.24 µM and a GI50 (RXF 393 renal) of 1.51 µM. The TGI (RXF 393 renal) was 4.77 µM, the GI50 (NCI-H23 lung) was 2.76 µM and the TGI (NCI-H23 lung) was > 100 µM. For the same compound, the GI50 (HCT-15 colon) was 1.51 µM, the TGI (HCT-15 colon) was > 100 µM and the GI50 (SW-620 colon) was 1.23 µM. For the same compound, the TGI (SW-620 colon) was > 100 µM, the GI50 (SR leukemia) was 0.565 µM and the TGI (SR leukemia) was 17.8 µM. The GI50 (SK-MEL-2 melanoma) was 3.96 µM, the TGI (SK-MEL-2 melanoma) was 37.2 µM and the GI50 (786-0 renal) was 2.57 µM. The TGI (786-0 renal) was 12.8 µM, the GI50 (COLO 205 colon) was 1.44 µM and the TGI (COLO 205 colon) was 7.49 µM. The GI50 (NCI/ADR-RES ovarian) was 0.511 µM, the TGI (NCI/ADR-RES ovarian) was 8.61 µM and the GI50 (EKVX NSCLC) was 1.93 µM. The TGI (EKVX NSCLC) was 74.3 µM, the GI50 (UACC-62 melanoma) was 1.33 µM and the TGI (UACC-62 melanoma) was > 100 µM. The GI50 (HL-60(TB) leukemia) was 1.67 µM, the TGI (HL-60(TB) leukemia) was 88.7 µM and the GI50 (KM12 colon) was 0.61 µM. It also gave a TGI (KM12 colon) of 14.6 µM, a GI50 (BT-549 breast) of 2.2 µM and a TGI (BT-549 breast) of 37.6 µM. The GI50 (A549 NSCLC) was 1.74 µM, the TGI (A549 NSCLC) was > 100 µM and the GI50 (NCI-H460 lung) was 1.12 µM. For the same compound, the TGI (NCI-H460 lung) was 18.9 µM, the GI50 (SK-MEL-28 melanoma) was 2.42 µM and the TGI (SK-MEL-28 melanoma) was > 100 µM. It also gave a GI50 (SNB-75 CNS) of 1.27 µM, a TGI (SNB-75 CNS) of 4.27 µM and a GI50 (HOP-92 NSCLC) of 2.31 µM. The TGI (HOP-92 NSCLC) was 8.14 µM, the GI50 (PC-3 prostate) was 2.13 µM and the TGI (PC-3 prostate) was 32 µM. The GI50 (U251 CNS) was 1.55 µM, the TGI (U251 CNS) was > 100 µM and the GI50 (MDA-MB-231 breast) was 3.01 µM. For the same compound, the TGI (MDA-MB-231 breast) was 22.2 µM, the GI50 (M14 melanoma) was 0.777 µM and the TGI (M14 melanoma) was 12.4 µM. The GI50 (RPMI-8226 leukemia) was 3.65 µM, the TGI (RPMI-8226 leukemia) was > 100 µM and the GI50 (HOP-62 NSCLC) was 2.67 µM. For the same compound, the TGI (HOP-62 NSCLC) was 84.7 µM, the GI50 (SF-268 CNS) was 3.38 µM and the TGI (SF-268 CNS) was 47.2 µM. The GI50 (UACC-257 melanoma) was 6.33 µM, the TGI (UACC-257 melanoma) was > 100 µM and the GI50 (OVCAR-4 ovarian) was 0.746 µM. For the same compound, the TGI (OVCAR-4 ovarian) was > 100 µM, the GI50 (NCI-H226 lung) was 2.6 µM and the TGI (NCI-H226 lung) was > 100 µM. The GI50 (SK-OV-3 ovarian) was 2.4 µM, the TGI (SK-OV-3 ovarian) was 21.2 µM and the GI50 (SNB-19 CNS) was 2.89 µM. For the same compound, the TGI (SNB-19 CNS) was > 100 µM, the GI50 (MDA-MB-435) was 0.237 µM and the TGI (MDA-MB-435) was 0.713 µM. The GI50 (SN12C renal) was 3.63 µM, the TGI (SN12C renal) was > 100 µM and the GI50 (HCT-116 colon) was 0.775 µM. The TGI (HCT-116 colon) was 41.2 µM, the GI50 (MOLT-4 leukemia) was 3.17 µM and the TGI (MOLT-4 leukemia) was > 100 µM. It also gave a GI50 (SF-295 CNS) of 0.709 µM, a TGI (SF-295 CNS) of 6.18 µM and a GI50 (MCF7 breast) of 0.528 µM. The TGI (MCF7 breast) was 60.5 µM, the GI50 (K-562 leukemia) was 0.358 µM and the TGI (K-562 leukemia) was > 100 µM. The GI50 (NCI-H522 lung) was 0.367 µM, the TGI (NCI-H522 lung) was 7.57 µM and the GI50 (DU-145 prostate) was 2.79 µM. The TGI (DU-145 prostate) was 21.9 µM, the GI50 (CCRF-CEM leukemia) was 2.41 µM and the TGI (CCRF-CEM leukemia) was > 100 µM. The GI50 (CAKI-1 renal) was 0.776 µM, the TGI (CAKI-1 renal) was 11.9 µM and the GI50 (T-47D breast) was 0.648 µM. For the same compound, the TGI (T-47D breast) was 23.2 µM, the GI50 (HCC-2998 colon) was 0.962 µM and the TGI (HCC-2998 colon) was 24.2 µM.
